Experiments:
human KDR-Fc (VEGFR2) = target: T1, human KDR-Fc (VEGFR2) (Homo sapiens, UniProt P35968); assay type: binding
T1 construct: purchased R & D Systems
Experimental: High-titer retrovirus encoding the gene for a soluble form of Flk-1, Flk-Fc, were used to infect 293T cells. Conditioned medium from these transduced cells was collected and subjected to Western blot analysis by using either antibody directed against Flk-1 or ^125I-labeled protein A to confirm the presence of both the Flk-1 and Fc portions of the fusion protein. For FACS analysis of HeLa-VEGF-cTcR cells, 2 ml of conditioned medium from these transduced cells or control media from untransduced 293T cells was used as the primary reagent. The cells were then washed and incubated with anti-mouse IgG2a-PE (Chemicon) and analyzed. For the VEGF-cTcR/KDR-Fc binding study, VEGF-cTcR clone 2 cells were incubated with increasing amounts of human KDR-Fc (R & D Systems), washed twice with PBS, and stained with anti-human IgG1-FITC antibody. For analysis of transduced CTLs, cells were incubated successively with anti-human c-Myc antibody, biotinylated anti-mouse IgG, and streptavidin-PE or only with anti-mouse CD8 antibody conjugated to FITC (Pharmingen).

Flk-1 = Flk-1 (Mus musculus, UniProt P35918); conditions: Millauer 1993; Quinn 1993; cited from earlier work
[1] = system: CT26 murine colon adenocarcinomas; test: Adoptive transfer, subcutaneous CT26 tumors in BALB/c mice; assay type: in vivo; conditions: combination study, TNP-470 30 mg/kg s.c. every other day, daily IL-2, FIG. 5A
Experimental: (§1) On day 0, tumor cells were implanted into the subcutaneous space on the right flank of recipient mice. On the days of treatment, CTLs (4 to 7 post-transduction) were harvested, washed, resuspended in cold PBS, and injected in a volume of 300 μl into the retro-orbital venous plexus. […] TNP-470 (TAP Holdings Inc., Deerfield, Ill.) (30 mg/kg) was injected subcutaneously (into a site remote from the tumor) every other day in 0.3 ml PBS starting with the first day of CTL therapy. Starting volumes of tumors ranged from 40 to 80 mm^3.

B16.F10 murine melanomas = test: Adoptive transfer, subcutaneous B16.F10 tumors in C57BL/6 mice; assay type: in vivo; conditions: combination study, TNP-470 30 mg/kg s.c. every other day, daily IL-2, FIG. 5B
Experimental: as §1

T241 fibrosarcomas = test: Adoptive transfer, T241 tumors in C57BL/6 mice; assay type: in vivo; conditions: combination study, TNP-470 30 mg/kg s.c. every other day, daily IL-2, FIG. 5C
Experimental: as §1, with “mm^3. All mice were sacrificed when control mice reached a mean tumor volume of 2,000 mm^3 or had extensive tumor ulceration.” for “mm^3.”

[2] = Toxicity observations in treated tumor-bearing mice; assay type: in vivo; conditions: TNP-470 alone
Experimental: as §1, with “mm^3. All mice were sacrificed when control mice reached a mean tumor volume of 2,000 mm^3 or had extensive tumor ulceration.” for “mm^3.”

Chain of Flk-1 (P35918 20-1345): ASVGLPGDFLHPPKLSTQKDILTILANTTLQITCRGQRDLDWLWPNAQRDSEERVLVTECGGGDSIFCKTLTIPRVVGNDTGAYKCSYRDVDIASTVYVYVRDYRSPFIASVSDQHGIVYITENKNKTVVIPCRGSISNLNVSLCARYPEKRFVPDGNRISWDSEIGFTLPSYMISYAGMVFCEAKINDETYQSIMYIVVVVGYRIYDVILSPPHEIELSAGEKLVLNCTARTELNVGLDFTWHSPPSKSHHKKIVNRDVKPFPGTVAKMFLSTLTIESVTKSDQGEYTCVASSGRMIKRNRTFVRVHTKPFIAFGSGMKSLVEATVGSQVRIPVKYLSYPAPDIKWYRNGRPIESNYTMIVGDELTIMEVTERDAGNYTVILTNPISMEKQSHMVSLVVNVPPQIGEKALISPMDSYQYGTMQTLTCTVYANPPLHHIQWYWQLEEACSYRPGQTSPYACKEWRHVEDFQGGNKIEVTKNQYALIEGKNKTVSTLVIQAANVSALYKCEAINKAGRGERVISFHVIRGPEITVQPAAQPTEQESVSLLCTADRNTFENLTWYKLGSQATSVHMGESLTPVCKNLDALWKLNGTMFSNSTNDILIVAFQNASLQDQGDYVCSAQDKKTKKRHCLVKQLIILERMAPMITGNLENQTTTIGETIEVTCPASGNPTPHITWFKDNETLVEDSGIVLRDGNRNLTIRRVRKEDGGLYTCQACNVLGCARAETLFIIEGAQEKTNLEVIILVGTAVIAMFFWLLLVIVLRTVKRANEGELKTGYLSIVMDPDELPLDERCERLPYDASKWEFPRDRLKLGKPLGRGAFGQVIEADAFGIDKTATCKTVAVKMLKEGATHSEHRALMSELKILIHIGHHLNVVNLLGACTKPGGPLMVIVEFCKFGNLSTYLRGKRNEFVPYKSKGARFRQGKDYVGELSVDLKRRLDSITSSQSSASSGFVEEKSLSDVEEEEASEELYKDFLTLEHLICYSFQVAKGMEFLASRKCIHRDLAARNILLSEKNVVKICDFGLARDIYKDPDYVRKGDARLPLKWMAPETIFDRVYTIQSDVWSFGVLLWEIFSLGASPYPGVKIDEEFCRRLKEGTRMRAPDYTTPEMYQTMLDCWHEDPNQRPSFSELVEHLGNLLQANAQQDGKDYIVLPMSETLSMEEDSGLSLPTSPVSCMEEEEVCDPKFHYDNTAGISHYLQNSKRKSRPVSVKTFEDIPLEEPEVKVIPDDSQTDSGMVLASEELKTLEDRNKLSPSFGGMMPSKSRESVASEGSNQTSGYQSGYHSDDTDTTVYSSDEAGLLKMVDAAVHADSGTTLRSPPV
T1 sequence (P35968 20-764 limits assumed): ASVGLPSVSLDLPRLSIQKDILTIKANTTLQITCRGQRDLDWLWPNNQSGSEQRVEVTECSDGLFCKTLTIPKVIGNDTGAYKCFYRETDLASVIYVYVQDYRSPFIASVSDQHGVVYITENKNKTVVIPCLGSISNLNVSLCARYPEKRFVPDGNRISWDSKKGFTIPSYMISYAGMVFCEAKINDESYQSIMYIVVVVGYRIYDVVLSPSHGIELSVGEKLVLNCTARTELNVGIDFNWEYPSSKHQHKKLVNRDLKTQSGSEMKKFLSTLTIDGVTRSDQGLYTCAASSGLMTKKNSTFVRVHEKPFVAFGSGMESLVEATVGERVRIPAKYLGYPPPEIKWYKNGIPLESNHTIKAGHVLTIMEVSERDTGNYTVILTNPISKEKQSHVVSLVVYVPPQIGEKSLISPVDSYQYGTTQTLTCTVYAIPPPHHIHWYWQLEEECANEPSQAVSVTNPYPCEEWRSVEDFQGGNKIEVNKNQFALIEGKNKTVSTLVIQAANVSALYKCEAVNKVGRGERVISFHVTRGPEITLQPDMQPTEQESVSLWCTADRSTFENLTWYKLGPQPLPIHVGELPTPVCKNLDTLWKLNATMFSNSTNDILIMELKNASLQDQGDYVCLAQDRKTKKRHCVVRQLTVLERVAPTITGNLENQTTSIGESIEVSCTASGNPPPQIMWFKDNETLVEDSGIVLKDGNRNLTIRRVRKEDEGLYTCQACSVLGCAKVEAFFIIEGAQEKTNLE

| Compound | inhibition of KDR-Fc binding to VEGF-cTcR clone 2 cells (human KDR-Fc (VEGFR2)) | binding affinity reported for association of native VEGF and Flk-1 (Flk-1) [nM] | inhibition of CT26 adenocarcinoma growth [1] [%] | inhibition of B16.F10 melanoma growth (B16.F10 murine melanomas) [%] | inhibition of T241 fibrosarcoma growth (T241 fibrosarcomas) [%] | weight loss ([2]; 30 mg/kg s.c. every other day) | reaction at the TNP-470 injection site ([2]; occasionally) |
| --- | --- | --- | --- | --- | --- | --- | --- |
| VEGF | inhibited in a dose-dependent manner | 0.1 to 0.5 | – | – | – | – | – |
| CO[C@@H]1[C@H](OC(=O)NC(=O)CCl)CC[C@]2(CO2)[C@H]1[C@@]1(C)O[C@@H]1CC=C(C)C [TNP-470] | – | – | 70 | 71 | 73 | up to 10 % of total body weight | mild skin breakdown |

Reference: patent US20060269529A1, “Modified t lymphocytes and uses therefor” (priority 2002, published 2006)
